Patent publication US20250145589A1, “PYRIDINE DERIVATIVE AND USE THEREOF” (SICHUAN HUIYU PHARMACEUTICAL CO., LTD., priority 2021, published 2025)

How the values were obtained:
KRAS G12C mutation = conditions: at the cellular level; cited from earlier work
[1] = system: pancreatic cancer MIA-Paca2 cell subcutaneous xenograft tumor; conditions: cited from earlier work
[2] = system: NCI-H358-AMGR drug-resistant cell line; assay: NCI-H358-AMGR drug-resistant cell proliferation inhibitory activity test; format: cell-based; conditions: 72 h; NCI-H358-AMGR drug-resistant cells, 3 days incubation, CellTiter-Glo
Summary of the method: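 Luminescent CellTiter-Glo read-out after 3-day, 37° C compound exposure (8 points, 5-fold series) of AMG510-resistant NCI-H358 cells plated at 4×10^3 per well.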

KRAS^G12C-SOS1 = KRAS^G12C-SOS1 (Homo sapiens (Human), UniProt P01116, G12C); assay: HTRF KRAS G12C/SOS1 binding assay; conditions: Table 5
Procedure: Initially, a 2 mM stock solution of the test compound (dissolved in DMSO) was serially diluted in five-fold concentrations using DMSO to obtain eight working solutions 1 (200×). Subsequently, each of the eight working solutions 1 was further diluted in a 20-fold gradient by adding 5 μL into 95 μL of Diluent buffer, mixed completely with vortex mixer, resulting in eight working solutions 2 (10×). […] Subsequently, 5 μL of Anti-tag 1-Tb^3+ stock solution and 5 μL of Anti-tag2-XL665 were added to each well, mixed, and incubated at 4° C. for 3 hours. Remove the plate and read on an HTRF® compatible reader, with the excitation light wavelength set at 337 nm and readings recorded at 620 nm and 665 nm. The data results were presented as the ratio of the 665 nm signal value to the 620 nm signal value for each well, calculated as follows: […]. The inhibition rate was calculated using the following formula: […]
Data were analyzed using GraphPad Prism with log (inhibitor) vs. response-Variable Slope (four parameters) fitting calculations for IC50 values.

[3] = system: MIA PaCa-2 cells (KRAS G12C mutant); assay: MIA PaCa-2 cell anti-proliferation (CellTiter-Glo); format: cell-based; conditions: Homo sapiens, 72 h; MIA Paca-2 cells, 3 days, Table 7; read-out: MIA PaCa-2 (IC50)
Summary of the method: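 Viable-cell luminescence (CellTiter-Glo, ≥30 min at 25 °C) measured after a 3-day, 37 °C exposure to compounds at 9 points, 4-fold spaced, in DMEM containing 10% FBS plus 2.5% horse serum. IC50 derived versus no-inhibitor wells.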

PI3Kα = PI3Kα (Homo sapiens (Human), UniProt P42336); assay: Inhibition of PI3Kα efficacy assay (ADP-Glo kinase assay); format: biochemical; conditions: Table 1; read-out: PI3Kα inhibitory activity (IC50)
Summary of the method: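 ADP-Glo luminescent detection of ADP from PI3Kα acting on PI substrate with ATP, 60 min at RT; compounds in 8-point five-fold serial dilution from 2 mM DMSO stock. IC50 from four-parameter variable-slope fit.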

PI3Kδ = PI3Kδ (Homo sapiens (Human), UniProt O00329); assay: Inhibition of PI3Kδ efficacy assay (ADP-Glo kinase assay); format: biochemical; conditions: Table 1; read-out: PI3Kδ inhibitory activity (IC50)
Summary of the method: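 Luminescent ADP-Glo readout of PI3Kδ: after a 60 min RT reaction with PI/ATP substrate, ATP depletion (40 min) and ADP detection (40 min) steps followed. Compounds tested as eight five-fold serial dilutions; inhibition rates fitted to log(inhibitor) vs. response, variable slope, for IC50.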

[4] = system: MIA PaCa-2-AMGR drug-resistant cell line; assay: MIA PaCa-2-AMGR drug-resistant cell proliferation inhibitory activity test; format: cell-based; conditions: 72 h, MIA PaCa-2-AMGR drug-resistant cells, 3 days incubation, CellTiter-Glo
Procedure: Test Example 7: Generation of MIA PaCa-2-AMGR drug-resistant cell line
MIA PaCa-2 cells were seeded and cultured at 50 to 70% confluence in six-well plate with DMEM (10% FBS+2.5% horse serum) medium at 37° C. with 5% CO2. AMG510 was added for induction at three starting concentrations of 1 nM, 10 nM and 50 nM, and the medium containing the same concentration of AMG510 was replaced every 3 days. Cells were passaged once they reached confluence. After every two passages at a given concentration of drug, the concentration was increased in a 3-fold increment until final concentrations of 1 μM for AMG510 was achieved.
MIA PaCa-2-AMGR cells in logarithmic growth phase were collected and seeded into a clear-bottom 96-well plate at a density of 4×10^3 cells per well in 80 μL of medium, and then incubated overnight at 37° C. with 5% CO2. The compounds were serially diluted 5-fold in DMSO to obtain 8 concentrations, and then further diluted with DMEM (10% FBS+2.5% horse serum) cell culture medium to obtain the working solutions (5×), 20 μL of each working solution was added to the cell culture supernatant in each well, and the plate was further incubated for 3 days at 37° C. with 5% CO2. The plate was then equilibrated with CellTiter-Glo® reagent at room temperature (25° C.) for 10-30 minutes. After aspirating 50 μL of the medium, 50 μL of CellTiter-Glo® reagent was added. The cells were thoroughly mixed with the CellTiter-Glo® reagent using a microplate shaker for 2 minutes, and then incubated at room temperature for 10 minutes. The 96-well plate was placed in a multi-mode microplate reader to record the luminescence values (RLU).
The inhibitory rate was calculated using the following formula: […]
Data were analyzed using GraphPad Prism for IC50 values (Note: The negative control refers to the group without inhibitor) The data were presented m Table 9

Sequence of PI3Kδ (O00329 whole entry): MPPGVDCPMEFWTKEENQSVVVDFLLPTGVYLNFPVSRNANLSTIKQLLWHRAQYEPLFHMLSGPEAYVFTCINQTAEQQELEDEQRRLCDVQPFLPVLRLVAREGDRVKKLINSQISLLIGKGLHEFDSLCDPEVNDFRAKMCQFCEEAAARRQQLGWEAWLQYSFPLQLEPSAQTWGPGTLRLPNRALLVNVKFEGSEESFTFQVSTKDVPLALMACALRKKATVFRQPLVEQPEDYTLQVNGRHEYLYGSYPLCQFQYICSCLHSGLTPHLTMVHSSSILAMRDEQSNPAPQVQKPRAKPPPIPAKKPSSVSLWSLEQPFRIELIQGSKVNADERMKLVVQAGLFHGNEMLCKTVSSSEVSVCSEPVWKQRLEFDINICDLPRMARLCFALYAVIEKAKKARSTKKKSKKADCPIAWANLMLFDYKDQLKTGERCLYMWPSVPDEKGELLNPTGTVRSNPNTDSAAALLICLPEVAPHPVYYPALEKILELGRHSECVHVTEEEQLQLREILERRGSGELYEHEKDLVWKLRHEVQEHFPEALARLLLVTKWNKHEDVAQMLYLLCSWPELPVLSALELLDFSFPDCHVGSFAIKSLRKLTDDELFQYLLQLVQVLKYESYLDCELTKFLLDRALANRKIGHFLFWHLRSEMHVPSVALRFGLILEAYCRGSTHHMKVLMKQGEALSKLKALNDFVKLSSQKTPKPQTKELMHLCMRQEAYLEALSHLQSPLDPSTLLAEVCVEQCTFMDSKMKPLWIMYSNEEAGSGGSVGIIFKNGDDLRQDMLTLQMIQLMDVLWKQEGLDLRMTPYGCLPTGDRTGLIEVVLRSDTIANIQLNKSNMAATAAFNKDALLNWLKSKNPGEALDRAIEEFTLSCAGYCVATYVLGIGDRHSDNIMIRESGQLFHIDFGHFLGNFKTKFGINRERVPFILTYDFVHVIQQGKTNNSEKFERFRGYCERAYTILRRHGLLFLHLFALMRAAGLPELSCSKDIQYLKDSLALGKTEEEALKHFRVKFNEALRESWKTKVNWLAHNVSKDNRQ
Sequence of PI3Kδ (P27986 whole entry partner): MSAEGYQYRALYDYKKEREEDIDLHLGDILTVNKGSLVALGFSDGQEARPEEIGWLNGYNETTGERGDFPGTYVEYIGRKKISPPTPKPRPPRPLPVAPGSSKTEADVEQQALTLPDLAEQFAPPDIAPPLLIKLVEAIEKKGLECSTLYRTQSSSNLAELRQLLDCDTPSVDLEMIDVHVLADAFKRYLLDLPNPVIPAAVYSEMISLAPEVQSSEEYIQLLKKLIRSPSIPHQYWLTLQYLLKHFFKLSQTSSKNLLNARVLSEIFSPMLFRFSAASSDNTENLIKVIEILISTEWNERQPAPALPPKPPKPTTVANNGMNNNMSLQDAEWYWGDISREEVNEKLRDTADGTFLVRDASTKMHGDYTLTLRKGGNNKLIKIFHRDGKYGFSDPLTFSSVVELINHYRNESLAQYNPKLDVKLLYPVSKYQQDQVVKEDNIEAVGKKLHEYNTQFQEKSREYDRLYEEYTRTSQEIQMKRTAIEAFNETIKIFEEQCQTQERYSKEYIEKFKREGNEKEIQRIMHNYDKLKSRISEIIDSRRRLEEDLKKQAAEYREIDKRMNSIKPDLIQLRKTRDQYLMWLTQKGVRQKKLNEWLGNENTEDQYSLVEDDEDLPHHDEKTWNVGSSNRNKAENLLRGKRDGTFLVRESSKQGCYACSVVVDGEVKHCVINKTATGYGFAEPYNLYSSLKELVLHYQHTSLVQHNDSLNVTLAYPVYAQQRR
Sequence of PI3Kα (P42336 whole entry): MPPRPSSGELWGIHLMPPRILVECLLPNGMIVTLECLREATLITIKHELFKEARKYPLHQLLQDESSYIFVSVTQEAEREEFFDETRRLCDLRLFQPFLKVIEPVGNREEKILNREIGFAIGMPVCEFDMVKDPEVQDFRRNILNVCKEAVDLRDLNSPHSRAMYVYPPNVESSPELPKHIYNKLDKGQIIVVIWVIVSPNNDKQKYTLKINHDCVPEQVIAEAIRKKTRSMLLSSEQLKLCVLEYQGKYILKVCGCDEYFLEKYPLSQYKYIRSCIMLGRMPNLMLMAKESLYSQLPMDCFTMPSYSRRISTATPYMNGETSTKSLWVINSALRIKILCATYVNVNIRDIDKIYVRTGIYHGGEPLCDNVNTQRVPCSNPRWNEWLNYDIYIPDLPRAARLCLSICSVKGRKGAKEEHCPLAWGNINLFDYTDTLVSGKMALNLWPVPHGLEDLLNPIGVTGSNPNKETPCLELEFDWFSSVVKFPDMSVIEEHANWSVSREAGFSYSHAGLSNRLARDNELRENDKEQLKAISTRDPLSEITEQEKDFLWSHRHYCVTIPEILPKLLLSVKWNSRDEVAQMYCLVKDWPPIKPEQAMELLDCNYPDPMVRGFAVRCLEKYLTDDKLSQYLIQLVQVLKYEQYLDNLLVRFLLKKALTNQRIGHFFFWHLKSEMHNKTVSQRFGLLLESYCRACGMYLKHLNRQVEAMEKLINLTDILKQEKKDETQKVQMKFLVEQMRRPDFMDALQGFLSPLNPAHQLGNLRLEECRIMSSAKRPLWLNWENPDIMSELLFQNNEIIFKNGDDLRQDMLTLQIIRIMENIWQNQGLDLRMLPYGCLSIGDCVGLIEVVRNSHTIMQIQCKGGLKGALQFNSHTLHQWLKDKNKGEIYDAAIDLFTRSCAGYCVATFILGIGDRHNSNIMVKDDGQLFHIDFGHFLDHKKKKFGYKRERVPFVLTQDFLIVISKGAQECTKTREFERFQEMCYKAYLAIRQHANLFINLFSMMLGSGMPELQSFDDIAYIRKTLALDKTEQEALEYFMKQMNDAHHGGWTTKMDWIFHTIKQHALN
Sequence of PI3Kα (P27986 whole entry partner): as the sequence (P27986 whole entry partner) above
Sequence of KRAS^G12C-SOS1 (P01116-2 other isoform, or with tags, fused parts or gaps G12C): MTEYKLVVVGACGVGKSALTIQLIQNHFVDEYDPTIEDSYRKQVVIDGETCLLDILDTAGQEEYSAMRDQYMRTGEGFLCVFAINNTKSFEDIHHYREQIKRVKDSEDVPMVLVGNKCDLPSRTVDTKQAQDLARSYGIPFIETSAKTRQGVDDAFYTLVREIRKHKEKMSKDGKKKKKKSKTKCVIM

| Compound | cellular anti-proliferative activity (KRAS G12C mutation) | tumor growth inhibition [1] | IC50 [2] [nM] | IC50 (KRAS^G12C-SOS1) [nM] | IC50 [3] [nM] | IC50 (PI3Kα) [nM] | IC50 (PI3Kδ) [nM] | IC50 [4] [nM] |
| --- | --- | --- | --- | --- | --- | --- | --- | --- |
| C=CC(=O)N1CCN(c2ncnc3c(F)c(-c4c(O)cccc4F)c(Cl)cc23)CC1 [ARS-1620] | nM-level | effectively inhibit tumor growth |  |  |  |  |  |  |
| COc1ncc(-c2ccc3ncnc(N4CCN(C(=O)/C=C/C(C)=O)CC4)c3c2)cc1NS(=O)(=O)c1ccc(Cl)s1 [Example 38, (E)-5-chloro-N-(2-methoxy-5-(4-(4-(4-oxopent-2-enoyl)piperazin-1-yl)quinazolin-6-yl)pyridin-3-yl)thiophene-2-sulfonamide] |  |  | 51.1 | 807 | 59.8 | 1.5 | 14.7 | 216 |
